Measurements taken from article PMC6270398, “Synthesis and Promising in Vitro Antiproliferative Activity of Sulfones of a 5-Nitrothiazole Series” (Molecules, 2012).

What was measured:
[1] = tested on: HepG2 cells; experiment: In vitro cytotoxicity evaluation on HepG2 cell line (MTT method); type: cell-based, human; conditions: for CC50: Homo sapiens, 72 h incubation with product, mean ± SD of three independent experiments, read-out: Cancer cell toxicity HepG2 CC50; for CC50 / antiproliferative activity on HepG2 cells (in words): HepG2 cell line, MTT; for antiproliferative effect times higher toward the HepG2 than toward the CHO cell line: ratio CHO CC50 / HepG2 CC50
Description: (§1) The antiproliferative activity of the synthesized compounds was evaluated against two different cancer cell lines, CHO and HepG2, employing the MTT method and doxorubicin as a reference drug. The cytotoxic activity in vitro was expressed as CC50 (µM), the concentration of compound that inhibits proliferation of cells by 50% as compared to untreated cells.
(§2) CHO and HepG2 cell lines were maintained at 37 °C, 6% CO2, 14% O2, 80% N2, with 90% humidity in RPMI supplemented with 10% fœtal bovine serum, 1% L-glutamine (200 mM) and penicillin (100 U/mL) / streptomycin (100 µg/mL) (complete RPMI medium).
(§3) In vitro cytotoxicity evaluation on CHO and HepG2 cell lines was performed according to the method described by Mosmann with slight modifications. Briefly, 5 × 10^3 cells in 100 µL of culture medium (RPMI + […]) were inoculated into each well of 96-well plates and incubated at 37 °C in a humidified 6% CO2, 14% O2, 80% N2 atmosphere. After 24 h incubation, 100 µL of medium with various product concentrations was added and the plates were incubated from 24 h (CHO) to 72 h (HepG2). Duplicate assays were performed for each sample. At the end of the treatment and incubation, the medium was aspirated from the wells and 10 µL yellow MTT (3-(4,5-dimethyl-2-thiazolyl)-2,5-diphenyl-2H-tetrazolium bromide) solution (5 mg MTT/mL in PBS) was added to each well with 100 µL of medium without fœtal bovine serum. Cells were incubated for 2 h at 37 °C to allow MTT […] by mitochondrial dehydrogenase in the viable cells. After 2 h, the MTT solution was aspirated and DMSO (100 µL) was added to each well to dissolve the resulting blue formazan crystals. Plates were then shaken vigorously (300 rpm) for a few minutes. The absorbance was measured at 570 nm with 630 nm as reference wavelength, using a microplate spectrophotometer. DMSO was used as blank and doxorubicin as positive control.
(§4) Cell viability was calculated as percentage of control (cells incubated without compound). The 50% cytotoxic concentrations (CHO CC50 and HepG2 CC50) were determined by non-linear regression analysis processed on dose-response curves, using the Table Curve software 2D v.5.0. CC50 values represent the mean value calculated from three independent experiments.

[2] = tested on: CHO cells; experiment: In vitro cytotoxicity evaluation on CHO cell line (MTT method); type: cell-based; conditions: for CC50: Cricetulus griseus, 24 h incubation with product, mean ± SD of three independent experiments, read-out: Cancer cell toxicity CHO CC50
Description: as §1, §2, §3, §4

Structure (SMILES) | CC50 [1] | melting point | CC50 [2] | antiproliferative activity on HepG2 cells (in words) [1] | antiproliferative activity on CHO cells (in words) [2] | antiproliferative effect times higher toward the HepG2 than toward the CHO cell line [1]
Cc1nc(CS(=O)(=O)c2ccc(Cl)cc2)c([N+](=O)[O-])s1 [2c, 4-[(4-Chlorophenylsulfonyl)methyl]-2-methyl-5-nitro-1,3-thiazole] | 13.4 µM | 180 °C | > 62.5 µM | – | – | –
Cc1nc(CS(C)(=O)=O)c([N+](=O)[O-])s1 [2j, 2-Methyl-4-(methylsulfonylmethyl)-5-nitro-1,3-thiazole] | > 250 µM | 127 °C | > 250 µM | no activity was observed | no activity was observed | –
Cc1nc(CS(=O)(=O)c2ccc(F)cc2)c([N+](=O)[O-])s1 [2e, 4-[(4-Fluorophenylsulfonyl)methyl]-2-methyl-5-nitro-1,3-thiazole] | 19.3 µM | – | 229 µM | – | – | –
CCc1ccc(S(=O)(=O)Cc2nc(C)sc2[N+](=O)[O-])cc1 [2i, 4-[(4-Ethylphenylsulfonyl)methyl]-2-methyl-5-nitro-1,3-thiazole] | 239 µM | – | > 500 µM | no activity was observed | no activity was observed | –
Cc1nc(CS(=O)(=O)c2cccc(C(F)(F)F)c2)c([N+](=O)[O-])s1 [2g, 2-Methyl-5-nitro-4-{[3-(trifluoromethyl)phenylsulfonyl]methyl}-1,3-thiazole] | 25.6 µM | 121 °C | 139 µM | – | – | –
COc1ccc(S(=O)(=O)Cc2nc(C)sc2[N+](=O)[O-])cc1 [2h, 4-[(4-Methoxyphenylsulfonyl)methyl]-2-methyl-5-nitro-1,3-thiazole] | 20.6 µM | – | 137 µM | – | – | –
Cc1nc(CS(=O)(=O)c2cccc(F)c2)c([N+](=O)[O-])s1 [2f, 4-[(3-Fluorophenylsulfonyl)methyl]-2-methyl-5-nitro-1,3-thiazole] | 23.6 µM | 154 °C | 321 µM | – | – | –
COc1cccc2c1C(=O)c1c(O)c3c(c(O)c1C2=O)C[C@@](O)(C(=O)CO)C[C@@H]3O[C@H]1C[C@H](N)[C@H](O)[C@H](C)O1 [Doxorubicin, reference compound] | 0.2 µM | – | 0.6 µM | – | – | –
Cc1nc(CS(=O)(=O)c2ccc3ccccc3c2)c([N+](=O)[O-])s1 [2l, 2-Methyl-4-[(naphtalen-2-ylsulfonyl)methyl]-5-nitro-1,3-thiazole] | 8.5 µM | 163 °C | 106 µM | – | – | –
Cc1nc(C(Cl)(Cl)S(=O)(=O)c2ccccc2)c([N+](=O)[O-])s1 [3a, 4-[Dichloro(phenylsulfonyl)methyl]-2-methyl-5-nitro-1,3-thiazole] | 1.2 µM | 169 °C | 2.5 µM | – | – | –
Cc1ccc(S(=O)(=O)Cc2nc(C)sc2[N+](=O)[O-])cc1 [2b, 2-Methyl-5-nitro-4-(tosylmethyl)-1,3-thiazole] | 7.7 µM | 179 °C | 237 µM | – | – | 31 times
Cc1ccc(S(=O)(=O)C(Cl)(Cl)c2nc(C)sc2[N+](=O)[O-])cc1 [3b, 4-[Dichloro(tosyl)methyl]-2-methyl-5-nitro-1,3-thiazole] | 1 µM | – | 1.2 µM | – | – | –
Cc1nc(CS(=O)(=O)c2ccc(Br)s2)c([N+](=O)[O-])s1 [2k, 4-[(5-Bromothiophen-2-ylsulfonyl)methyl]-2-methyl-5-nitro-1,3-thiazole] | 13.8 µM | – | 47.3 µM | – | – | –
Cc1nc(C(Cl)(Cl)S(=O)(=O)c2ccc(Cl)cc2)c([N+](=O)[O-])s1 [3c, 4-[Dichloro(4-chlorophenylsulfonyl)methyl]-2-methyl-5-nitro-1,3-thiazole] | 1.1 µM | – | 1.4 µM | – | – | –
Cc1nc(CS(=O)(=O)c2ccccc2)c([N+](=O)[O-])s1 [2a, 2-methyl-5-nitro-4-phenylsulfonylmethyl-1,3-thiazole] | 24.6 µM | – | 323 µM | – | – | –
Cc1nc(CS(=O)(=O)c2ccc(Br)cc2)c([N+](=O)[O-])s1 [2d, 4-[(4-Bromophenylsulfonyl)methyl]-2-methyl-5-nitro-1,3-thiazole] | 11.7 µM | – | > 500 µM | – | – | 43 times
Cc1nc(C(Cl)(Cl)S(=O)(=O)c2ccc(F)cc2)c([N+](=O)[O-])s1 [3e, 4-[Dichloro(4-fluorophenylsulfonyl)methyl]-2-methyl-5-nitro-1,3-thiazole] | 1.2 µM | 145 °C | 1.3 µM | – | – | –
Cc1nc(C(Cl)(Cl)S(=O)(=O)c2ccc(Br)cc2)c([N+](=O)[O-])s1 [3d, 4-[(4-Bromophenylsulfonyl)dichloromethyl]-2-methyl-5-nitro-1,3-thiazole] | 1.2 µM | 165 °C | 1.3 µM | – | – | –
